In US8623859B2, “Bradykinin B1 antagonists” (Evotec AG, priority 2008, dated 2014):
Where a name gives a salt, the structure may show the parent alone.

Target: T1, human B1 (Homo sapiens, UniProt P46663)
T1 construct: host or cells: CHO-K1
T1 sequence (P46663 1-353): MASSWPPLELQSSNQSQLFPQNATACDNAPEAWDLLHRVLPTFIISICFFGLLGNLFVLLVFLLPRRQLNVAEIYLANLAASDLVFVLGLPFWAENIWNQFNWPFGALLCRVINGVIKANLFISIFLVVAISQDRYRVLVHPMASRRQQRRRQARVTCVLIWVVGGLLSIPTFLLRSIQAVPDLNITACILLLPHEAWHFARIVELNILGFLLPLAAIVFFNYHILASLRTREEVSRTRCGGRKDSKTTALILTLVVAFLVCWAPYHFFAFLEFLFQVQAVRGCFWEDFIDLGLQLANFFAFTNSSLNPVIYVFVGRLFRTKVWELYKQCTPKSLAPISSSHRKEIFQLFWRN
Experiment: Calcium flux assay for Bradykinin B1 antagonist, CHO-K1 cell line expressing human B1
Format: cell-based
Details: CHO-K1 cells expressing human B1, agonist Lys-(Des-Arg)-Bradykinin, read-out: Potency (IC50 value against human B1)
Outline: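 CHO-K1 cells expressing human B1, loaded with 5 μM Fluo-4AM (2 h, 37° C) in HEPES buffer pH 7.4 with probenecid and 0.1% BSA, were preincubated 30 min at 25° C with compound (8 concentrations, triplicate, 1% DMSO) before B1 agonist addition. Ca2+ fluorescence monitored at 538 nm; background-normalized integrated values plotted against log antagonist concentration.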

COc1cc(C)c(S(=O)(=O)N(Cc2nc(C(=O)N(C)Cc3ccc4c(c3)CN(C)C4)co2)C2CC2)c(C)c1 [Ex 225, 2-({Cyclopropyl[(4-methoxy-2,6-dimethylphenyl)sulfonyl]amino}methyl)-N-methyl-N-[(2-methyl-2,3-dihydro-1H-isoindol-5-yl)methyl]-1,3-oxazole-4-carboxamide trifluoroacetate]
IC50: 0.01 to 0.1 µM

CN(Cc1cc(C(=O)N2CCN(CCc3ccncc3)CC2)co1)S(=O)(=O)c1c(Cl)cccc1Cl [Ex 18, 2,6-dichloro-N-methyl-N-[(4-{[4-(2-pyridin-4-ylethyl)piperazin-1-yl]carbonyl}furan-2-yl)methyl]benzenesulfonamide]
IC50: 0.1 to 1 µM

COc1cc(C)c(S(=O)(=O)N(Cc2nc(C(=O)N(C)CCOc3ccncc3)co2)C2CC2)c(C)c1 [Ex 257, 2-({Cyclopropyl[(4-methoxy-2,6-dimethylphenyl)sulfonyl]amino}methyl)-N-methyl-N-[2-(pyridin-4-yloxy)ethyl]-1,3-oxazole-4-carboxamide]
IC50: 0.1 to 1 µM

COc1cc(C)c(S(=O)(=O)N(C)Cc2cc(C(=O)NCCc3ccc(CNCC(C)C)cc3)co2)c(C)c1 [Ex 42, 5-({[(4-methoxy-2,6-dimethylphenyl)sulfonyl](methyl)amino}methyl)-N-[2-(4-{[(2-methylpropyl)amino]methyl}phenyl)ethyl]furan-3-carboxamide]
IC50: 0.1 to 1 µM

COc1cc(C)c(S(=O)(=O)N(C)Cc2nnc(C(=O)N3CCN(Cc4c[nH]c(C)n4)CC3)o2)c(C)c1 [Ex 292, 4-Methoxy-N,2,6-trimethyl-N-{[5-({4-[(2-methyl-1H-imidazol-4-yl)methyl]piperazin-1-yl}carbonyl)-1,3,4-oxadiazol-2-yl]methyl}benzenesulfonamide]
IC50: < 0.01 µM

CN1CCC(CN2CCN(C(=O)c3coc(CN(C)S(=O)(=O)c4c(Cl)cccc4Cl)c3)CC2)CC1 [Ex 17, 2,6-dichloro-N-methyl-N-{[4-({4-[(1-methylpiperidin-4-yl)methyl]piperazin-1-yl}carbonyl)furan-2-yl]methyl}benzenesulfonamide]
IC50: 0.1 to 1 µM

COc1cc(C)c(S(=O)(=O)N(C)Cc2cc(C(=O)NCc3cccc(CN4CCCC4)c3)co2)c(C)c1 [Ex 11, 5-({[(4-methoxy-2,6-dimethylphenyl)sulfonyl](methyl)amino}methyl)-N-[3-(pyrrolidin-1-ylmethyl)benzyl]furan-3-carboxamide]
IC50: 0.1 to 1 µM

COc1cc(C)c(S(=O)(=O)N(Cc2nc(C(=O)N3CCN(Cc4cccnc4N)CC3)co2)C2CC2)c(C)c1 [Ex 253, N-{[4-({4-[(2-Aminopyridin-3-yl)methyl]piperazin-1-yl}carbonyl)-1,3-oxazol-2-yl]methyl}-N-cyclopropyl-4-methoxy-2,6-dimethylbenzenesulfonamide]
IC50: < 0.01 µM

COc1cc(C)c(S(=O)(=O)N(Cc2nc(C(=O)N3CCN(C4CCN(C)CC4)CC3)co2)C2CC2)c(C)c1 [Ex 165, N-Cyclopropyl-4-methoxy-2,6-dimethyl-N-[(4-{[4-(1-methylpiperidin-4-yl)piperazin-1-yl]carbonyl}-1,3-oxazol-2-yl)methyl]benzenesulfonamide]
IC50: < 0.01 µM

COc1cc(C)c(S(=O)(=O)N(C)Cc2nc(C(=O)N(C)Cc3cccc(CN4CCCC4)c3)co2)c(C)c1 [Ex 73, 2-({[(4-Methoxy-2,6-dimethylphenyl)sulfonyl](methyl)amino}methyl)-N-methyl-N-[3-(pyrrolidin-1-ylmethyl)benzyl]-1,3-oxazole-4-carboxamide]
IC50: < 0.01 µM

CN(CCc1ccc(C2=NCCN2)cc1)C(=O)c1coc(CN(C2CC2)S(=O)(=O)c2c(Cl)cc(Br)cc2Cl)c1 [Ex 124, 5-({[(4-Bromo-2,6-dichlorophenyl)sulfonyl](cyclopropyl)amino}methyl)-N-{2-[4-(4,5-dihydro-1H-imidazol-2-yl)phenyl]ethyl}-N-methylfuran-3-carboxamide trifluoroacetate]
IC50: < 0.01 µM

COc1cc(C)c(S(=O)(=O)N(Cc2nc(C(=O)N3CCN(Cc4ccnc(C)c4)CC3)co2)C2CC2)c(C)c1 [Ex 252, N-Cyclopropyl-4-methoxy-2,6-dimethyl-N-{[4-({4-[(2-methylpyridin-4-yl)methyl]piperazin-1-yl}carbonyl)-1,3-oxazol-2-yl]methyl}benzenesulfonamide]
IC50: < 0.01 µM

COc1cc(C)c(S(=O)(=O)N(C)Cc2cc(C(=O)NCc3ccc(Nc4nccc(N)n4)cc3)co2)c(C)c1 [Ex 14, N-{4-[(4-aminopyrimidin-2-yl)amino]benzyl}-5-({[(4-methoxy-2,6-dimethylphenyl)sulfonyl](methyl)amino}methyl)furan-3-carboxamide]
IC50: 0.1 to 1 µM

COc1cc(C)c(S(=O)(=O)N(C)Cc2cc(C(=O)N(C)CCc3ccc(C4=NCCN4C)cc3)co2)c(C)c1 [Ex 98, 5-({[(4-Methoxy-2,6-dimethylphenyl)sulfonyl](methyl)amino}methyl)-N-methyl-N-{2-[4-(1-methyl-4,5-dihydro-1H-imidazol-2-yl)phenyl]ethyl}furan-3-carboxamide trifluoroacetamide]
IC50: 0.1 to 1 µM

CN(Cc1ccc(C2=NCCN2)cc1)C(=O)c1coc(CN(C)S(=O)(=O)c2ccc(Cl)cc2Cl)c1 [Ex 21, 5-({[(2,4-dichlorophenyl)sulfonyl](methyl)amino}methyl)-N-[4-(4,5-dihydro-1H-imidazol-2-yl)benzyl]-N-methylfuran-3-carboxamide]
IC50: < 0.01 µM

COc1cc(C)c(S(=O)(=O)N(Cc2nc(C(=O)N(C)Cc3ccc(CN4CCC(OC)CC4)cc3)co2)C2CC2)c(C)c1 [Ex 183, 2-({Cyclopropyl[(4-methoxy-2,6-dimethylphenyl)sulfonyl]amino}methyl)-N-{4-[(4-methoxypiperidin-1-yl)methyl]benzyl}-N-methyl-1,3-oxazole-4-carboxamide]
IC50: < 0.01 µM

COc1cc(C)c(S(=O)(=O)N(C)Cc2nc(C(=O)N(C)Cc3ccc(CN4CC(O)C4)cc3)co2)c(C)c1 [Ex 172, N-{4-[(3-Hydroxyazetidin-1-yl)methyl]benzyl}-2-({[(4-methoxy-2,6-dimethylphenyl)sulfonyl](methyl)amino}methyl)-N-methyl-1,3-oxazole-4-carboxamide]
IC50: 0.01 to 0.1 µM

COc1cc(C)c(S(=O)(=O)N(Cc2nc(C(=O)N3CCC(O)(CN4CCOCC4)CC3)co2)C2CC2)c(C)c1 [Ex 224, N-Cyclopropyl-N-[(4-{[4-hydroxy-4-(morpholin-4-ylmethyl)piperidin-1-yl]carbonyl}-1,3-oxazol-2-yl)methyl]-4-methoxy-2,6-dimethylbenzenesulfonamide trifluoroacetate]
IC50: 0.01 to 0.1 µM

COc1cc(C)c(S(=O)(=O)N(Cc2nc(C(=O)NCc3cccc(CN4CCCC4)c3)co2)C2CC2)c(C)c1 [Ex 78, 2-({Cyclopropyl[(4-methoxy-2,6-dimethylphenyl)sulfonyl]amino}methyl)-N-[3-(pyrrolidin-1-ylmethyl)benzyl]-1,3-oxazole-4-carboxamide]
IC50: < 0.01 µM

CN(Cc1ccc(CN2CCCC2)cc1)C(=O)c1coc(CN(C2CC2)S(=O)(=O)c2c(Cl)cc(Cl)cc2Cl)n1 [Ex 216, 2-({Cyclopropyl[(2,4,6-trichlorophenyl)sulfonyl]amino}methyl)-N-methyl-N-[4-(pyrrolidin-1-ylmethyl)benzyl]-1,3-oxazole-4-carboxamide trifluoroacetate]
IC50: 0.1 to 1 µM
